These results are taken from publication PMC7580834, “Inhibition mechanism of naphthylphenylamine derivatives acting on the CDC25B dual phosphatase and analysis of the molecular processes involved in the high cytotoxicity exerted by one selected derivative in melanoma cells” (Journal of Enzyme Inhibition and Medicinal Chemistry, 2020).

In series [1] the test system is A2058 cells. Put plainly: Apoptosis by cytofluorimetry after PI incorporation (subdiploid DNA content). It counts as cell-based, human. As to conditions: 5 or 10 µM, 24-72 h. The method, then:
(§1) The human melanoma cell lines A375 and A2058, deriving from a primary tumour or lymph nodal metastasis, respectively, were kindly provided from CEINGE (Naples, Italy). Cells were grown in DMEM supplemented with 10% FBS, 2 mM L-glutamine, 100 IU/mL penicillin G and 100 µg/mL streptomycin in humidified incubator at 37 °C under 5% CO2 atmosphere. The cell line BJ-5ta, a human skin fibroblast immortalised with the human telomerase reverse transcriptase[30] was cultured in a 4:1 mixture of DMEM and Medium 199 supplemented with 4 mM L-glutamine, 4.5 g/L glucose, 1.5 g/L sodium bicarbonate, 10% FBS, 100 IU/mL penicillin G, […] streptomycin in humidified incubator at 37 °C under 5% CO2 atmosphere. All cells were split and seeded every 3 days and used during their exponential phase of growth. Cell treatments were usually carried out after 24 h from plating.
(§2) Cytofluorimetric analysis was used to determine the number of apoptotic nuclei essentially as previously described. Briefly, cells were seeded into six-well plates at 3 × 10^5 cells/well and after 24 h were treated with 4a or 0.5% (v/v) DMSO and incubated for different times. Then, cells were harvested with trypsin, and centrifuged, and the pellets were resuspended in 200 µL of a hypotonic lysis solution containing 50 µg/mL PI. After incubation at 4 °C for 30 min, cells were analysed with a FACScan flow cytometer (Becton Dickinson, Franklin Lakes, NJ, USA) to evaluate the presence of nuclei with DNA content lower than diploid.

Series [2] relates to A375 cells. Described as above. It counts as cell-based, human. The settings on record: 5 or 10 µM, 24-72 h. The method, then:
as §1, §2

For a further series, the system named is BJ-5ta cells. The series is described as above. It counts as cell-based, human. The settings on record: 10 µM, 24-, 48- or 72-h, nontumorigenic fibroblasts. The method, then:
as §1, §2

The test system of series [3] is cytochrome c in A2058 cells. Put plainly: Cytochrome c subcellular localisation (immunofluorescence and Western blotting of fractions). In kind it is cell-based, human. As to conditions: 10 µM, 24 h. How it is done:
(§3) To obtain the total protein extract, cells were seeded into 6-well-plates (3 × 10^5 cells/plate) for 24 h at 37 °C and then treated with 4a or 0.5% (v/v) DMSO. After treatment, cells were harvested, washed with PBS, and then lysed in ice-cold modified radio immunoprecipitation assay (RIPA) buffer (50 mM Tris•HCl, pH 7.4, 150 mM NaCl, 1% Nonidet P-40, 0.25% sodium deoxycholate, 1 mM Na3VO4 and 1 mM NaF), supplemented with protease inhibitors and incubated for 30 min on ice. The supernatant, obtained after centrifugation at 13200 g for 30 min at 4 °C, constituted the total protein extract. Protein concentration was determined by the Bradford method, using bovine serum albumin (BSA) as standard. To obtain the cytosolic and mitochondrial fractions, cells were plated at a density of 2 × 10^6 cells/plate for 24 h at 37 °C. After the treatment with 4a or 0.5% (v/v) DMSO, cells were harvested, washed in PBS, and then resuspended in buffer A (5 mM Hepes, pH 7.4, 250 mM mannitol, 0.5 mM EGTA, 0.1% BSA), supplemented with protease inhibitors, and homogenised. The homogenate was centrifuged at 600 g for 5 min at 4 °C and the supernatant was then centrifuged at 10300 g for 10 min at 4 °C. The resulting supernatant represented the cytosolic fraction, whereas the pellet, constituting the mitochondrial fraction was resuspended in RIPA buffer. Protein concentration was determined as previously indicated. Equal amounts of total, cytosolic or mitocondrial protein extracts were used for Western blotting analysis. Briefly, protein samples were dissolved in SDS-reducing loading buffer, run on sodium dodecylsulfate polyacrylamide gel electrophoresis (SDS/PAGE), and then transferred to Immobilon P membrane (Millipore, Saint Louis, MO, USA). The filter was incubated with the specific primary antibody at 4 °C overnight and then with the secondary antibody at room temperature for 1 h. Membranes were then analysed by an enhanced chemiluminescence reaction using WesternBright ECL (Advansta, San Jose, CA, USA) according to manufacturer’s instructions; signals were visualised by autoradiography. The analysis of pAkt protein levels was performed as previously described. Briefly, filters were first incubated with the anti-pAkt primary antibody and then with the secondary antibody and membranes were analysed by an enhanced chemiluminescence reaction as previously indicated. The same filters were then stripped, using AbCam (Cambridge, UK) stripping solution, pH 2 (200 mM glycine, 3.5 mM SDS, 1% Tween-20) at 45 °C for 30 min, washed 3 times with PBS-Tween 0.1%, incubated with anti-Akt primary antibody and then with the relative secondary antibody. Signals were detected as previously specified.
(§4) Immunofluorescence experiments were carried out essentially as previously described. […]

Series [4] has as its system cytochrome c in A375 cells. Described as above. In kind it is cell-based, human. As to conditions: 10 µM, 24 h. The method, then: as §3, §4
For series [5], the system named is A2058 cells. In words: Western blotting of total cell extracts (CDC25A, -B, -C, p53, pAkt). The settings on record: 10 µM. In kind it is cell-based, human. How it is done:
as §3
For orientation: Immunoblotting shows a protein as a band on a membrane.

The subject of series [6] is A375 cells. The description is as above. It counts as cell-based, human. As to conditions: 10 µM. How it is done: as §3
Series [7] relates to A2058 and A375 melanoma cell lines. Set-up: method as in PMID 31294975. As to conditions: 10 µM; cited from earlier work.

The structures appear in SMILES notation. “Also recorded” adds a separate entry of the source.

Consider `CCOC(=O)c1cccc(Nc2cc(OC)cc3ccccc23)c1` [4a], for which the “apoptosis (cells with a hypodiploid DNA content)” value with A2058 cells [1] was “dose- and time-dependent increase”; in the series with A375 cells [2] it was “dose- and time-dependent increase”. Further, in the series on BJ-5ta cells, the “apoptosis (cells with a subdiploid DNA content)” value was “does not exert any apoptotic effect”. In addition, the “cytochrome c localisation, Western blotting of cytosolic and mitochondrial extracts” value in series [3] and in series [4] was “significant cytosolic translocation” each time. Also, the “cytochrome c localisation, immunofluorescence” value in series [3] and in series [4] was “induces a cytosolic translocation of cytochrome c” each time. The p53 protein levels result was “clear and significant increase” with A2058 cells [5] (16- and 24-h); “clear and significant increase” in the series on A375 cells [6] (16- and 24-h). Moreover, the pAkt protein levels entry in the series with A2058 cells [5] (30-min) is “significant and early decrease”; in the series on A375 cells [6] (30-min), “significant and early decrease”. The “CDC25A, -B and -C protein levels” value in the series with A2058 cells [5] (essentially after 24- and 48-h) was “reduction of protein levels of all three forms”; in the series with A375 cells [6] (essentially after 24- and 48-h) it was “reduction of protein levels of all three forms”. For the same compound, the “cell cycle of melanoma cells” value in series [7] is listed as “arrest of cells in G2/M phase; also recorded: arrest in the G2/M phase; also recorded: arrested the cell cycle of melanoma cells in G2/M phase”. The “cell growth of melanoma cells” value in series [7] is listed as “reduced the cell growth rate; also recorded: significantly reduced; also recorded: significant antiproliferative action”. Also, the pCDK1 protein levels entry in series [7] is listed as “increase”.
